Entries after “also recorded” stand apart in the source; their conditions may differ.

Results on 2 molecules are retold here after patent US20230172933A1, “USE OF A COMPOUND OR COMPOSITION COMPRISING AN INHIBITOR OF NLRP1 INFLAMMASOME ACTIVATION FOR THE TREATMENT OF HUMAN AIRWAY INFLAMMATION” (Nanyang Technological University, priority 2020, published 2023).

One data set deals with human NLRP1 inflammasome. Nature of the data set: HRV14-3Cpro-induced ASC-GFP speck formation in 293T-ASC-GFP-NLRP1-FLAG reporter cells. The note with it: 293T-ASC-GFP-NLRP1-FLAG cells transfected with HRV14-3Cpro; MLN4924 1 μM, MG132 2.5 μM, Bortezomib 0.5 μM, phenylalanine 1 mM; 24 hours. It counts as cell-based.
The subject of another data set is NLRP1. Nature of the data set: NLRP1 self-oligomerization (BN-PAGE) and cleavage fragment (SDS-PAGE/Western blot) in 293T-NLRP1-FLAG cells transfected with HRV14-3Cpro. It counts as cell-based, human.
Data set [1] deals with endogenous NLRP1 inflammasome. Put plainly: Endogenous NLRP1 inflammasome in doxycycline-induced Tet-ON HRV14-3Cpro N/TERT keratinocytes. It counts as cell-based, human.
Another data set concerns NLRP1 inflammasome. Nature of the data set: Talabostat-induced IL-1β secretion in N/TERT keratinocytes. The following applies: ELISA of conditioned media. Format: cell-based, human. (In general: An ELISA detects its analyte on a solid surface through an enzyme-linked reagent.)
The test system of data set [2] is NLRP1 inflammasome in HRV16-infected NHBEs. Nature of the data set: HRV16-induced IL-1β and IL-18 secretion in NHBEs (ELISA). It counts as cell-based, human. The note with it: HRV16 MOI=5, 33° C., 48 hours, pre-treated: MLN4924 1 μM, Bortezomib 1 μM, MCC950 5 μM, Rupintrivir 10 nM. How it is done:
(§1) (A) Expression levels of NLRP1 vs. NLRP3 (RNAseq FKPM) in NHBEs. n=21, independent cultures of pooled NHBEs from healthy donors. (B) Expression of NLRP1 vs. NLRP3 in healthy human nasal biopsy. Puncta: positive staining by RNAscope. Nuclei staining: hematoxylin. (C) Overview of cytokine profiling of by HRV16-infected and Talabostat-treated NHBEs. (D) Cells were inoculated with HRV16 at MOI=5 and cultured at 33° C. for 48 hours. Luminex array was performed on conditioned media after removing cell debris. n=3 independent infections and treatment. Cytokines/chemokines that were induced at least 5 fold (p<0.05, Student's t test, lognormal values) are represented by square boxes. […] NHBEs were pretreated with MCC950 (5 μM) or Rupintrivir (10 nM) before HRV16 inoculation or Talabostat (2 μM) treatment. […] (G) Overview of apical HRV infection 3D human bronchial epithelial cultures. (H) Alcian blue (AB)/periodic acid-Schiff (PAS) staining of HRV16-infected (MOI=3) and Talabostat (2 μM)-treated 3D human bronchial epithelial cultures. (1) IL-18 level in apical or basal media 48 hours post-infection or Talabostat treatment. **P<0.01, ***P<0.001, ****P<0.0001 (Two-way ANOVA). n=3 independent infected/treated cultures. (J) Secretion of cleaved IL-1β and IL-18 and ASC oligomerization in HRV16-infected primary NHBEs. Cells were inoculated with HRV16 (MOI=5) or treated with Talabostat (2 μM) for 48 hours at 33° C.
(§2) (A) Endogenous NLRP1, ASC and caspase-1 are indispensable for HRV16-induced IL-18 secretion in NHBEs. Cas9-control, NLRP1, ASC and CASP1 KO NHBEs were infected with HRV16 as before. Conditioned media were harvested 48 hours post-infection. (B) NLRP1 is genetically required for HRV16-induced IL-18 cleavage and ASC oligomerization. Cas9 control, NLRP1 and ASC KO NHBEs were infected with HRV16 as before. Cleaved IL-18 are marked with arrows. (C) Mutating the NLRP1 cleavage site abrogates HRV16-triggered IL-18 secretion in NHBEs. NLRP1 KO NHBEs were rescued with lentiviral constructs expressing FLAG-tagged NLRP1^WT or NLRP1^Q130A, which carried silent mutations at the PAM sites. The rescued cells were infected with HRV16 or treated with Talabostat. Conditioned media was analyzed by IL-18 ELISA. **P<0.01, ***P<0.001, n=3 replicates from one of two independent infections. (D) Q130A abrogates NLRP1 cleavage, IL-18 maturation and ASC oligomerization in NHBEs. NLRP1 KO or NLRP1^WT- or NLRP1^Q130A-rescued cells were infected with HRV16 or treated with Talabostat. Cells were harvested 48 hours post infection. Arrow: NLRP1 cleavage product in lane 8 HRV16. *: Non-specific NLRP1 degradation product that occurs right below the a.a. 131-1213 cleavage fragment. See also FIG. 3E, 5E, 5D. (E) MLN4924 and Bortezomib blocks HRV16-induced IL-18 secretion. NHBEs were pre-treated with MLN4924 (1 μM) or Bortezomib (1 μM) before HRV16 infection or Talabostat treatment. IL-18 levels were measured with ELISA. ****, p<0.0001 (Two-way ANOVA), n=3 independent infections/treatment. (F) MLN4924 and Bortezomib blocks HRV16-induced IL-1β secretion. […] Lysates from HRV16-infected NHBEs in FIGS. 9E-F were analyzed by Western blot 48 hours post HRV16 inoculation.
The following antibodies were used in this study: c-Myc (Santa Cruz Biotechnology #sc-40), HA tag (Santa Cruz Biotechnology, #sc-805), GAPDH (Santa Cruz Biotechnology, #sc-47724), ASC (Adipogen, #AL-177), CASP1 (Santa Cruz Biotechnology, #sc-622), IL1B (R&D systems, #AF-201), FLAG (SigmaAldrich, #F3165), GFP (Abcam, #ab290), NLRP1 (R&D systems, #AF6788), IL18 (Abcam ab207324) and VP2 (QED Bioscience, #18758). HRV16-3Cpro was detected by rabbit serum, a kind gift from Dr. Ann Palmenberg and Dr. James Gern (University of Wisconsin). Cytokine and chemokine measurements were carried out with human IL-1B ELISA kit (BD, #557953), human IL-18 ELISA kit (MBL Bioscience, #7620) and Immune Monitoring 65-Plex Human ProcartaPlex™ Panel (ThermoFisher EPX650-10065-901). […]

Data set [3] deals with NLRP1 inflammasome in Talabostat-treated NHBEs. Nature of the data set: Talabostat-induced IL-1β and IL-18 secretion in NHBEs (ELISA). Format: cell-based, human. The note with it: Talabostat 2 μM, pre-treated: MLN4924 1 μM, MCC950 5 μM, Rupintrivir 10 nM. How it is done: as §1
(A) Endogenous NLRP1, ASC and caspase-1 are indispensable for HRV16-induced IL-18 secretion in NHBEs. Cas9-control, NLRP1, ASC and CASP1 KO NHBEs were infected with HRV16 as before. Conditioned media were harvested 48 hours post-infection. (B) NLRP1 is genetically required for HRV16-induced IL-18 cleavage and ASC oligomerization. Cas9 control, NLRP1 and ASC KO NHBEs were infected with HRV16 as before. Cleaved IL-18 are marked with arrows. […] Conditioned media was analyzed by IL-18 ELISA. **P<0.01, ***P<0.001, n=3 replicates from one of two independent infections. […] IL-18 levels were measured with ELISA. ****, p<0.0001 (Two-way ANOVA), n=3 independent infections/treatment. […] Lysates from HRV16-infected NHBEs in FIGS. 9E-F were analyzed by Western blot 48 hours post HRV16 inoculation.
(§3) The following antibodies were used in this study: c-Myc (Santa Cruz Biotechnology #sc-40), HA tag (Santa Cruz Biotechnology, #sc-805), GAPDH (Santa Cruz Biotechnology, #sc-47724), ASC (Adipogen, #AL-177), CASP1 (Santa Cruz Biotechnology, #sc-622), IL1B (R&D systems, #AF-201), FLAG (SigmaAldrich, #F3165), GFP (Abcam, #ab290), NLRP1 (R&D systems, #AF6788), IL18 (Abcam ab207324) and VP2 (QED Bioscience, #18758). HRV16-3Cpro was detected by rabbit serum, a kind gift from Dr. Ann Palmenberg and Dr. James Gern (University of Wisconsin). […]

A further data set concerns HRV16. Put plainly: VP2 maturation in HRV16-infected NHBEs (Western blot). It counts as cell-based, HRV-A16. The note with it: 48 hours post inoculation, MLN4924 1 μM. How it is done: as §2, with “Arrow: NLRP1 cleavage product in lane 8 HRV16. *: Non-specific NLRP1 degradation product that occurs right below the a.a. 131-1213 cleavage fragment. See also FIG. 3E, 5E, 5D. (E) MLN4924 and Bortezomib blocks HRV16-induced IL-18 secretion. NHBEs were pre-treated with MLN4924 (1 μM) or Bortezomib (1 μM) before HRV16 infection or Talabostat treatment.” left out, “infections/treatment.” for “infections/treatment. (F) MLN4924 and Bortezomib blocks HRV16-induced IL-1β secretion.”, “inoculation. […]” for “inoculation.”

The test system of another data set is human NLRP1. Put plainly: ASC-GFP speck formation in 293T-ASC-GFP-NLRP1-FLAG cells after Talabostat treatment. It counts as cell-based. The note with it: Talabostat 2 μM, 24 hrs, compared to vector-transfected cells.
In the next data set the test system is N/TERT cells. Nature of the data set: Mode of cell death of N/TERT cells by Annexin V and PI inclusion. Format: cell-based, human. The following applies: Talabostat-treated N/TERT cells; marked by PI inclusion. The protocol: (A) Expression of Myc-tagged viral proteases in 293T-ASC-GFP-NLRP1-FLAG cells. Two exposure times were shown. Note that Myc-HRV16-3Cpro was lowly expressed but could activate ASC-GFP specks. (B) Representative wide-field fluorescent images of ASC-GFP specks, NLRP1-HA and Myc-tagged proteases. 293T-ASC-GFP cells were co-transfected with NLRP1-HA and Myc-tagged gZiPro, HRV14-3Cpro or HRV14-3Cpro^C146A and fixed 24 hours post transfection. (C) Validation of ASC KO in N/TERT cells. ASC KO #2 was chosen for further experiments. (E) N/TERT KO cells were transfected with the indicated 3Cpro variants and harvested 24 hours post transfection. Conditioned media was analyzed by IL-1β ELISA. **P<0.01 (Two-way ANOVA). n=3 independent transfections. (F) Modes of cell death of Talabostat-treated, or doxycycline-induced Tet-ON HRV14-3Cpro N/TERT cells assayed […] and PI inclusion. Data are representative of one of two independent experiments.
This provides a robust cellular system to determine if 3Cpros can activate the endogenous NLRP1 inflammasome. […] Live-cell imaging of human keratinocytes expressing GFP-tagged ASC further corroborated that HRV14-3Cpro could induce ASC-GFP speck formation (FIG. 1F). […]

The next data set deals with NHBEs. Put plainly: Cytokine response of Talabostat-treated NHBEs (Luminex array, ELISA). It counts as cell-based, human. The protocol:
(A) Expression levels of NLRP1 vs. NLRP3 (RNAseq FKPM) in NHBEs. n=21, independent cultures of pooled NHBEs from healthy donors. (B) Expression of NLRP1 vs. NLRP3 in healthy human nasal biopsy. Puncta: positive staining by RNAscope. Nuclei staining: hematoxylin. (C) Overview of cytokine profiling of by HRV16-infected and Talabostat-treated NHBEs. (D) Cells were inoculated with HRV16 at MOI=5 and cultured at 33° C. for 48 hours. Luminex array was performed on conditioned media after removing cell debris. n=3 independent infections and treatment. Cytokines/chemokines that were induced at least 5 fold (p<0.05, Student's t test, lognormal values) are represented by square boxes. […] NHBEs were pretreated with MCC950 (5 μM) or Rupintrivir (10 nM) before HRV16 inoculation or Talabostat (2 μM) treatment. […]
as §3

The subject of data set [4] is 3D human bronchial epithelial cultures. Nature of the data set: Talabostat treatment of 3D human bronchial epithelial cultures. It counts as cell-based. The following applies: Talabostat 2 μM. How it is done:
as §1, with “Cells were inoculated with HRV16 (MOI=5) or treated with Talabostat (2 μM) for 48 hours at 33° C.” left out

With `NS(=O)(=O)OC[C@@H]1C[C@@H](n2ccc3c(N[C@H]4CCc5ccccc54)ncnc32)C[C@@H]1O` [MLN4924, ((1S,2S,4R)-4-(4-(((S)-2,3-dihydro-1H-inden-1-yl)amino)-7H-pyrrolo[2,3-d]pyrimidin-7-yl)-2-hydroxycyclopentyl)methyl sulfamate], the “HRV14-3Cpro-induced ASC-GFP speck formation” value with human NLRP1 inflammasome is reported as “blocked; also recorded: abrogate”. Further, the “stabilization of the post-cleavage NLRP1 fragment (a.a. 131-1213)” value in the data set on NLRP1 (293T-NLRP1-FLAG cells transfected with HRV14-3Cpro, Western blot) is “led to the stabilization”. Besides, the “HRV14-3Cpro-induced NLRP1 self-oligomerization” value with NLRP1 (293T-NLRP1-FLAG cells, BN-PAGE, drugs for 24 hours, MG132 2.5 μM) is “similarly blocked; also recorded: inhibits”. Moreover, the “ASC oligomerization upon HRV14-3Cpro induction” value in [1] (doxycycline 24 hours) is recorded as “completely blocked”. Further, in data set [1] (doxycycline 24 hours, Western blot, ELISA), the “mature IL-1β secretion upon HRV14-3Cpro induction” value is “completely blocked”. In addition, in data set [1] (doxycycline with drug for 24 hours), the “endogenous 3Cpro-induced NLRP1 inflammasome and pyroptosis” value is recorded as “inhibits”. Moreover, the “stabilization of the post-cleavage NLRP1 fragment” value in [1] (fragment below detection limit in untreated cells) is reported as “stabilized”. In addition, the “Talabostat-induced IL-1β secretion” value in the data set on NLRP1 inflammasome is “much less dramatic effect”. Moreover, in data set [2], the “HRV16-induced IL-1β secretion” value is reported as “completely blocked; also recorded: blocks” and the “HRV16-induced IL-18 secretion” value was “completely blocked; also recorded: blocks”. In data set [3], the “Talabostat-induced IL-1β secretion” value is reported as “only had a modest effect” and the “Talabostat-induced IL-18 secretion” value is “did not affect”. Further, in the data set on HRV16, the “accumulation of mature capsid protein VP2 (3Cpro-dependent VP2 maturation)” value is “did not affect; also recorded: does not affect”.
For the molecule `CC(C)[C@H](N)C(=O)N1CCC[C@H]1B(O)O` [Talabostat], the “percentage of cells forming ASC-GFP specks” value in the data set with human NLRP1 was “significant increase”. Further, in the data set with N/TERT cells, the “mode of cell death” value was “exclusively caused lytic cell death”. Further, in the data set on NHBEs (ELISA), the IL-1β secretion entry is recorded as “significantly secreted”. For the same molecule, the “IL-18 induction (cytokine profiling)” value with NHBEs (Luminex array on conditioned media) is recorded as “most highly induced cytokine”. In addition, the “epithelium morphology (Alcian blue/PAS staining)” value in data set [4] is “significant disruption of the epithelium, increased mucin production and goblet cell engorgement”. In addition, the “IL-18 level in apical or basal media” value in data set [4] (48 hours) was “led to IL-18 secretion in both the apical and basal media”.
